The source of these data is ChEMBL document CHEMBL3352791, “Thioaryl naphthylmethanone oxime ether analogs as novel anticancer agents” (J Med Chem, 2014).

The structures appear in SMILES notation. Bounds are passed on as bounds.

The nature of data set [1]: Antiproliferative activity against human prostate, androgen receptor positive DU145 cells after 24 hrs by MTT assay. The data set is classed as functional, cell-based, DU-145.
The next data set concerns Ishikawa. In words: Antiproliferative activity against human ER-positive Ishikawa cells after 24 hrs by MTT assay. The data set is classed as functional, cell-based.
For data set [2], the system named is MCF7. Briefly: Antiproliferative activity against human ER-negative MCF7 cells after 24 hrs by MTT assay. Type of data set: functional, cell-based.
The next data set deals with HeLa. In words: Antiproliferative activity against human HeLa cells after 24 hrs by MTT assay. Type of data set: functional, cell-based. As to conditions: Homo sapiens, HeLa, 24 h.
In data set [3] the test system is MDA-MB-231. In words: Antiproliferative activity against human ER-positive MDA-MB-231 cells after 24 hrs by MTT assay. The data set is classed as functional, cell-based.
For data set [4], the system named is MDA-MB-231. Briefly: Antiproliferative activity against human ER-positive MDA-MB-231 cells after 72 hrs by MTT assay. Conditions: MDA-MB-231, 72 h. Type of data set: functional, cell-based.
Data set [5] in a line: Cytotoxicity against human MCF10A cells after 72 hrs by MTT assay. Type of data set: ADME, cell-based. Conditions: MCF-10A.
Data set [6] in a line: Safety index, ratio of IC50 for human MCF10A cells to EC50 for human ER-positive MDA-MB-231 cells. Conditions: MCF10A cells versus.
The subject of data set [7] is MCF7. Briefly: Antiproliferative activity against human ER-negative MCF7 cells after 72 hrs by MTT assay. Type of data set: functional, cell-based. Conditions: MCF7, 72 h.
The next data set can be described thus: in vitro. As to conditions: human, MCF10A cells versus.

Regarding `CSc1ccc(/C(=N\OCCCCNCCc2ccccc2)c2cccc3ccccc23)cc1`, the EC50 in data set [1] (Homo sapiens, DU-145, 24 h) was over 50 µM; with Ishikawa (Homo sapiens, Ishikawa, 24 h) it was over 50 µM; in the data set with MCF7 [2] (Homo sapiens, MCF7, 24 h) it was 18 µM; in the data set with HeLa, over 50 µM; in the data set on MDA-MB-231 [3] (Homo sapiens, MDA-MB-231, 24 h) it was 20 µM.

With `CCCCC(CC)CNCCCO/N=C(\c1ccc(OC)cc1)c1cccc2ccccc12` (centres undefined), the EC50 in [1] (Homo sapiens, DU-145, 24 h) is over 50 µM; with Ishikawa (Homo sapiens, Ishikawa, 24 h), over 50 µM; in the data set with MCF7 [2] (Homo sapiens, MCF7, 24 h) it was over 50 µM; with HeLa it was over 50 µM; with MDA-MB-231 [3] (Homo sapiens, MDA-MB-231, 24 h), over 50 µM.

For the compound `CSc1ccc(/C(=N\OCCN2CCCCC2)c2cccc3ccccc23)cc1`, the EC50 in [1] (Homo sapiens, DU-145, 24 h) worked out at 10 µM; in the data set on Ishikawa (Homo sapiens, Ishikawa, 24 h), 10 µM; in the data set with MCF7 [2] (Homo sapiens, MCF7, 24 h) it was 13.5 µM; with HeLa it was 13.5 µM; in the data set on MDA-MB-231 [3] (Homo sapiens, MDA-MB-231, 24 h) it was 8.8 µM.

Turning to `COc1ccc(/C(=N\OCCN2CCOCC2)c2cccc3ccccc23)cc1`, the EC50 in data set [1] (Homo sapiens, DU-145, 24 h) was over 50 µM; with Ishikawa (Homo sapiens, Ishikawa, 24 h), over 50 µM; in the data set with MCF7 [2] (Homo sapiens, MCF7, 24 h), 20 µM; in the data set on HeLa it was over 50 µM; with MDA-MB-231 [3] (Homo sapiens, MDA-MB-231, 24 h) it was 25 µM.

As for `CSc1ccc(/C(=N\OC(C)CN(C)C)c2cccc3ccccc23)cc1` (centres undefined), the concentration for a half-maximal effect (EC50) in data set [1] (Homo sapiens, DU-145, 24 h) was over 50 µM; with Ishikawa (Homo sapiens, Ishikawa, 24 h), over 50 µM; in the data set with MCF7 [2] (Homo sapiens, MCF7, 24 h), over 50 µM; in the data set with HeLa, over 50 µM; in the data set with MDA-MB-231 [3] (Homo sapiens, MDA-MB-231, 24 h), over 50 µM.

Take `COc1ccc(/C(=N\OCCN2CCCCC2)c2cccc3ccccc23)cc1`: the EC50 in [1] (Homo sapiens, DU-145, 24 h) is over 50 µM; in the data set on Ishikawa (Homo sapiens, Ishikawa, 24 h), over 50 µM; in the data set with MCF7 [2] (Homo sapiens, MCF7, 24 h), 18 µM; in the data set with HeLa, 15 µM; with MDA-MB-231 [3] (Homo sapiens, MDA-MB-231, 24 h), over 50 µM.

As for `CCOC(=O)CO/N=C(\c1ccc(SC)cc1)c1cccc2ccccc12`, the 50% effective concentration (EC50) in data set [1] (Homo sapiens, DU-145, 24 h) is over 50 µM; with Ishikawa (Homo sapiens, Ishikawa, 24 h), over 50 µM; in the data set on MCF7 [2] (Homo sapiens, MCF7, 24 h) it was 30 µM; with HeLa, 18 µM; in the data set on MDA-MB-231 [3] (Homo sapiens, MDA-MB-231, 24 h) it was 35 µM.

Take `CSc1ccc(/C(=N\O)c2cccc3ccccc23)cc1`: the EC50 is over 50 µM in [1] (Homo sapiens, DU-145, 24 h); over 50 µM with Ishikawa (Homo sapiens, Ishikawa, 24 h); 18 µM in the data set with MCF7 [2] (Homo sapiens, MCF7, 24 h); 18 µM with HeLa; 20 µM in the data set with MDA-MB-231 [3] (Homo sapiens, MDA-MB-231, 24 h).

In the case of `COc1ccc(/C(=N\OCCN2CCCC2)c2cccc3ccccc23)cc1`, the EC50 in [1] (Homo sapiens, DU-145, 24 h) was over 50 µM; in the data set on Ishikawa (Homo sapiens, Ishikawa, 24 h), over 50 µM; in the data set with MCF7 [2] (Homo sapiens, MCF7, 24 h) it was 25 µM; in the data set with HeLa it was 20 µM; in the data set with MDA-MB-231 [3] (Homo sapiens, MDA-MB-231, 24 h), over 50 µM.

In the case of `COc1ccc(/C(=N\OCCN2CCCCCC2)c2cccc3ccccc23)cc1`, the EC50 was 35 µM in [1] (Homo sapiens, DU-145, 24 h); over 50 µM with Ishikawa (Homo sapiens, Ishikawa, 24 h); 25 µM in the data set on MCF7 [2] (Homo sapiens, MCF7, 24 h); 20.5 µM in the data set with HeLa; 30 µM in the data set on MDA-MB-231 [3] (Homo sapiens, MDA-MB-231, 24 h).

As to `CSc1ccc(/C(=N\OCCCCN2CCCC2)c2cccc3ccccc23)cc1`, the half-maximal effective concentration (EC50) in data set [1] (Homo sapiens, DU-145, 24 h) was over 50 µM; in the data set with Ishikawa (Homo sapiens, Ishikawa, 24 h) it was over 50 µM; in the data set with MCF7 [2] (Homo sapiens, MCF7, 24 h) it was over 50 µM; with HeLa it was over 50 µM; in the data set on MDA-MB-231 [3] (Homo sapiens, MDA-MB-231, 24 h), over 50 µM.

`CCN(CC)C(=O)CO/N=C(\c1ccc(SC)cc1)c1cccc2ccccc12`: the 50% effective concentration (EC50) in data set [1] (Homo sapiens, DU-145, 24 h) was over 50 µM; in the data set with Ishikawa (Homo sapiens, Ishikawa, 24 h), over 50 µM; with MCF7 [2] (Homo sapiens, MCF7, 24 h), 28 µM; with HeLa, 25 µM; in the data set on MDA-MB-231 [3] (Homo sapiens, MDA-MB-231, 24 h) it was 30 µM.

As for `CSc1ccc(/C(=N\OCCCN2CCCCC2)c2cccc3ccccc23)cc1`, the EC50 in data set [1] (Homo sapiens, DU-145, 24 h) worked out at 15 µM; with MDA-MB-231 [4] it was 20 µM; in the data set on Ishikawa (Homo sapiens, Ishikawa, 24 h), 12 µM; in the data set with MCF7 [2] (Homo sapiens, MCF7, 24 h), 5 µM; with HeLa, 6.5 µM; with MCF7 [7], 5 µM. Besides, in the data set on MDA-MB-231 [3] (Homo sapiens, MDA-MB-231, 24 h), it took 20 µM to reach a half-maximal effect (EC50). The IC50 in data set [5] worked out at 10 µM. Also, the selectivity ratio came out at 0.5 in data set [6] and 2 in “in vitro”.

Take `CCN(CC)CCO/N=C(\c1ccc(SC)cc1)c1cccc2ccccc12`: the EC50 is 18.5 µM in data set [1] (du-145), 15 µM in the data set with Ishikawa (ishikawa), 14.8 µM in the data set with MCF7 [2] (mcf7) and 11.2 µM in the data set with MDA-MB-231 [3] (mda-mb-231).

With `COc1ccc(/C(=N\OCCN(C)C)c2cccc3ccccc23)cc1`, the concentration giving a half-maximal response (EC50) in data set [1] (Homo sapiens, DU-145, 24 h) is over 50 µM; with Ishikawa (Homo sapiens, Ishikawa, 24 h) it was over 50 µM; with MCF7 [2] (Homo sapiens, MCF7, 24 h), 15 µM; in the data set on HeLa, 23 µM; in the data set on MDA-MB-231 [3] (Homo sapiens, MDA-MB-231, 24 h) it was over 50 µM.

`COc1ccc(/C(=N\OCCN(C(C)C)C(C)C)c2cccc3ccccc23)cc1`: the EC50 in data set [1] (Homo sapiens, DU-145, 24 h) is over 50 µM; with Ishikawa (Homo sapiens, Ishikawa, 24 h), over 50 µM; with MCF7 [2] (Homo sapiens, MCF7, 24 h) it was 23 µM; in the data set with HeLa it was over 50 µM; with MDA-MB-231 [3] (Homo sapiens, MDA-MB-231, 24 h), over 50 µM.

Consider `CSc1ccc(/C(=N\OCCCN(C)C)c2cccc3ccccc23)cc1`, for which the EC50 in data set [1] (Homo sapiens, DU-145, 24 h) is 9.5 µM; in the data set on MDA-MB-231 [4] it was 5.6 µM; in the data set with Ishikawa (Homo sapiens, Ishikawa, 24 h) it was 7 µM; in the data set on MCF7 [2] (Homo sapiens, MCF7, 24 h) it was 8 µM; in the data set with HeLa it was 8 µM; with MCF7 [7], 1 µM. Besides, the response in the data set on MDA-MB-231 [3] (Homo sapiens, MDA-MB-231, 24 h) was half-maximal at 7.2 µM (EC50). Also, the IC50 in [5] stood at 30 µM. Moreover, the selectivity ratio in data set [6] was determined as 5.3; in the data set “in vitro”, 30.
